We go through eight compounds from patent US20250057959A1, “PHOSPHANE GOLD(I)-N-HETEROCYCLIC CARBENE COMPLEXES FOR TREATING CANCER” (KING FAHD UNIVERSITY OF PETROLEUM AND MINERALS, priority 2023, published 2025).

What all share (format): cell-based, human
One assay concerns A2780. Nature of the assay: MTT cell viability assay, A2780. The conditions noted are these: for IC50: 72 hours treatment, MTT; for Activity compared with cisplatin or auranofin in A2780 cells: comparison of IC50, Table 8. From the text:
(§1) Human epithelial ovarian cancer A2780 cell line and its cisplatin-resistant clone A2780cis were obtained from Sigma-Aldrich (Milano, Italy). SKOV3 (HTB-77) cells were from the American Type Culture Collection (ATCC). The two cell lines were selected to reflect the two different stages of OvCa and different sensitivity to cisplatin. A2780 cell lines were derived from the ovarian tumor tissue of an untreated patient, while SKOV3 was from the ascitic fluids (after metastasis). Cells were authenticated in the laboratory using PowerPlex 16 HS system (Promega) and GeneMapper ID version 3.2.1 to identify DNA short tandem repeats. Cell lines were cultured in RPMI-1640 medium containing 10% fetal bovine serum (FBS) (Gibco, Thermo Fisher Scientific, U.S.A), 1% (v/v) of penicillin (10,000 units/mL)-streptomycin (10 mg/mL), and 1% (v/v) L-glutamine (200 mM) (all from Sigma- Aldrich) at 37° C. in a 5% CO2 fully humidified atmosphere. A2780cis cells were continuously exposed to 1 μM cisplatin to maintain cisplatin resistance. Adipose-derived stem cells (ADSCs) were purchased from Lonza and maintained in mesenchymal-stem-cell growth medium Bulletkit MSCGM (Lonza, Verviers, Belgium).
(§2) 4.0×10^3/mL A2780, A2780cis, and SKOV3 cells were seeded in 96-well microplates in 100 μL of culture medium. Cells were allowed to adhere for 24 hours and then were treated in triplicate with increasing concentrations of gold compounds (0-1 μM). Cisplatin was included as a reference drug. Cell viability was evaluated using 3-(4,5-dimethylthiazol-2-yl)-2,5-diphenyltetrazolium bromide (MTT) assay (Sigma-Aldrich) after 72 hours of treatment. Half maximal inhibitory concentrations (IC50) were calculated using the CalcuSyn software version 2 (Biosoft, Ferguson, MO, USA). Fold resistance was calculated as the ratio of the IC50 of the A2780cis to that of the parental cell line A2780.
A general note: Tetrazolium dyes change colour on reduction, which living cells bring about.

Assay [1] relates to A2780cis. Briefly: MTT cell viability assay, cisplatin-resistant A2780cis. To be noted: for IC50: 72 hours treatment, MTT; for Fold resistance (A2780cis/A2780): IC50 A2780cis/IC50 A2780. From the text:
Human epithelial ovarian cancer A2780 cell line and its cisplatin-resistant clone A2780cis were obtained from Sigma-Aldrich (Milano, Italy). SKOV3 (HTB-77) cells were from the American Type Culture Collection (ATCC). The two cell lines were selected to reflect the two different stages of OvCa and different sensitivity to cisplatin. A2780 cell lines were derived from the ovarian tumor tissue of an untreated patient, while SKOV3 was from the ascitic fluids (after metastasis). […] Cell lines were cultured in RPMI-1640 medium containing 10% fetal bovine serum (FBS) (Gibco, Thermo Fisher Scientific, U.S.A), 1% (v/v) of penicillin (10,000 units/mL)-streptomycin (10 mg/mL), and 1% (v/v) L-glutamine (200 mM) (all from Sigma- Aldrich) at 37° C. in a 5% CO2 fully humidified atmosphere. […] Cisplatin was included as a reference drug. […] Fold resistance was calculated as the ratio of the IC50 of the A2780cis to that of the parental cell line A2780.

The test system of the next assay is SKOV3 cells. Briefly: MTT cell viability assay, SKOV3. To be noted: 72 hours treatment.
Excerpt: as §1, §2

The subject of assay [2] is A2780 and A2780cis cells. Nature of the assay: Apoptosis by flow cytometry (annexin-V/7AAD, caspase-3,7, BAX, Bcl-2). To be noted: 48 hours; complex 6 and auranofin at IC50 and IC75, cisplatin 0.15 μM and 0.50 μM. Here is the method:
(§3) Results were detected by flow cytometry on a BD FACSCanto II flow cytometer. Data were analyzed using BD FACSDiva version 8.0.1 software (BD Biosciences) unless otherwise indicated. To evaluate apoptosis, tumor cells were treated for 48 hours and then stained for 15 minutes with FITC annexin-V (Thermo Fisher Scientific) and 7AAD (BD Pharmingen). […] For B-cell lymphoma/leukemia-2 (Bcl-2) and Bcl-2 associated x protein (Bax) evaluation, cells were fixed and permeabilized using FIX & PERM cell fixation and cell permeabilization kit (Life Technologies). […] The distribution of cells in different cell cycle phases was quantified using ModFit LT 4.0 software (Verity Software House, Topsham, ME, USA).

The test system of assay [3] is A2780 and A2780cis cells. Nature of the assay: mitROS generation (MitoSOX red), flow cytometry. Here is the method:
as §3

Assay [4] relates to A2780 and A2780cis cells. Nature of the assay: DNA double-strand breaks, γ-H2AX western blot. Here is the method:
Whole-cell lysates were prepared using cold RIPA buffer [150 mM NaCl, 50 mM Tris-HCl (pH 8), 0.1% SDS, 1% Igepal, and 0.5% desoxycholate sodium] containing a protease inhibitor cocktail (Roche Diagnostics S.p.a., Milan, Italy), phosphatase inhibitors 1 mM Na3VO4 and 1 mM NaF (Sigma-Aldrich). Protein concentrations were determined using the BioRad protein assay (Bio-Rad Laboratories, Inc., CA, USA). Equal amounts of proteins were mixed with Laemmli buffer, separated in 4-20% SDS-PAGE (Criterion Precast Gel, BioRad), and blotted onto a nitrocellulose membrane (Amersham, GE Healthcare). Membrane strips were blocked with EveryBilot blocking buffer (Bio-Rad) and incubated at 4° C. overnight with primary antibodies probed with the appropriate antibodies (Table 2) and developed using Immobilon Western chemioluminescent HRP substrate. Images were acquired using a ChemiDoc XRS system (Bio-Rad).
For orientation: In western blotting, separated proteins are transferred to a membrane and probed.

Assay [5] relates to A2780 cells. Briefly: Cell cycle analysis (PI, flow cytometry), A2780. To be noted: for Effect on cell cycle phases: A2780, 24 hours, auranofin 0.5 μM (IC50), cisplatin 0.50 μM. Here is the method: as §3
(A flow cytometer gives signals particle by particle.)

In assay [6] the test system is A2780cis. Briefly: Cell cycle analysis (PI, flow cytometry), A2780cis. The conditions noted are these: 24 hours. Here is the method:
as §3

Another assay concerns SKOV3-MCTSs. Briefly: SKOV3-MCTS spheroid volume. Here is the method:
To generate single spheroids with defined size, 1.0×10^3/mL SKOV3 cells were seeded 4 days under nonadherent conditions in U-bottom 96-well plates coated twice with 20 mg/mL of poly(2-hydroxyethyl methacrylate) (poly-HEMA; Sigma) in 95% ethanol. Spheroid size was measured at days 0, 3, and 7 after drug treatment initiation using an inverted microscope (Eclipse TS/100, Nikon, Tokyo, Japan) with photomicrographic systems DS camera control unit DS-L2. Spheroid volumes were calculated using the formula (width^2×length×3.14)/6.

Assay [7] relates to A2780 cells. Briefly: ROS generation (MitoSOX red), flow cytometry, A2780. To be noted: cisplatin 0.50 μM; from 6.4%. Here is the method: 2.0×10^5/mL A2780 and A2780cis cells were seeded in 6-well plates in complete medium and treated with complex 6 (0.15 μM and 0.5 μM). Results were detected by flow cytometry on a BD FACSCanto II flow cytometer. Data were analyzed using BD FACSDiva version 8.0.1 software (BD Biosciences) unless otherwise indicated. To evaluate apoptosis, tumor cells were treated for 48 hours and then stained for 15 minutes with FITC annexin-V (Thermo Fisher Scientific) and 7AAD (BD Pharmingen). […] For B-cell lymphoma/leukemia-2 (Bcl-2) and Bcl-2 associated x protein (Bax) evaluation, cells were fixed and permeabilized using FIX & PERM cell fixation and cell permeabilization kit (Life Technologies). For ROS generation, cells were stained with 5 μM MitoSOX red mitochondrial superoxide indicator (ThermoFisher Scientific) in a working solution for 30 minutes at 37° C. Cell cycle analysis was performed after 24 hours treatment with complex 6. Cells were harvested, fixed in cold 70% ethanol for 15 minutes, and stained with propidium iodide (PI) solution ([…] PI, 0.1% NP-40, 100 µg/mL PureLink RNase A, 0.1% sodium citrate) for 1 hour. The distribution of cells in different cell cycle phases was quantified using ModFit LT 4.0 software (Verity Software House, Topsham, ME, USA).

Regarding `CC[PH](CC)(CC)[Au][S][C@@H]1O[C@H](COC(C)=O)[C@@H](OC(C)=O)[C@H](OC(C)=O)[C@H]1OC(C)=O` [Auranofin, (2,3,4,6-tetra-O-acetyl-L-thio-β-D-glycopyranosato-S-)-(triethylphosphane)gold(I), reference compound], the IC50 (in general, the concentration at which inhibition is half-maximal) in the assay with A2780 was determined as 510 ± 70 nM; in the assay on A2780 (listed as auranofin), 500 nM; with A2780cis [1] it was 1910 ± 220 nM; in the assay on A2780cis [1] (listed as auranofin), 1900 nM; in the assay on SKOV3 cells, 2300 nM. In addition, the “Fold resistance (A2780cis/A2780)” value in the assay with A2780cis [1] turned out to be 3.7. Moreover, the “Apoptosis (annexin-V / 7AAD positive cells)” value in the assay with A2780 and A2780cis cells [2] is given as “less active in inducing apoptosis in cisplatin-resistant A2780cis than in A2780 cells”. The mitROS generation result in the assay with A2780 and A2780cis cells [3] is reported as “induced ROS generation”. In addition, the “DNA double-strand breaks (γH2AX)” value in the assay with A2780 and A2780cis cells [4] is “induced”. The “sub-G0/G1 phase (DNA fragmentation)” value in the assay on A2780 cells [5] (A2780, 0.8 μM (IC75), 24 hours) is reported as 11%; in the assay on A2780cis [6] (2.5 μM (IC75)) it was 1.7%. Also, the “Effect on cell cycle phases” value is “decreased the G1 phase” in the assay with A2780 cells [5]; “slightly decreased the G1 phase and increased the S phase” in the assay with A2780cis [6]. Further, the “Effect on SKOV3-MCTSs at 1 μM” value with SKOV3-MCTSs (1 μM) was “did not reduce SKOV3-MCTS volume”. Besides, in the assay on SKOV3-MCTSs (72 hours), the “Concentration at which SKOV3-MCTS growth inhibition was seen” value is given as “higher than 5 μM”.
For `N.N.[Cl][Pt][Cl]` [Cisplatin, reference compound], the IC50 in the assay with A2780 stood at 1500 nM; with A2780cis [1], 10400 nM; with SKOV3 cells, 5400 nM. The “Fold resistance (A2780cis/A2780)” value in the assay on A2780cis [1] was determined as 6.93. In addition, the “Apoptosis (annexin-V / 7AAD positive cells)” value in the assay with A2780 and A2780cis cells [2] is given as “did not induce apoptosis”. Besides, the “ROS generation (positive cells)” value in the assay with A2780 cells [7] stood at 17.4%. Besides, the “DNA double-strand breaks (γH2AX)” value in the assay on A2780 and A2780cis cells [4] was “did not induce”. The “Effect on cell cycle phases” value in the assay with A2780 cells [5] is reported as “slight increase of the G2/M phase”. Besides, the “Decrease of SKOV3-MCTS growth with respect to control” value in the assay on SKOV3-MCTSs (1 μM, 7 days) is 16%.
In the assay with A2780, `CC(C)c1cccc(C(C)C)c1-n1ccn(-c2c(C(C)C)cccc2C(C)C)[c]1=[Au+][PH](CCC#N)(CCC#N)c1ccccc1.F[P-](F)(F)(F)(F)F` [Complex 1, [Au(IPr)(C12H13N2P)] PF6] gave an IC50 of 2000 ± 190 nM. Moreover, in the assay with A2780cis [1], half-maximal inhibition (IC50) was put at 3550 ± 350 nM and the “Fold resistance (A2780cis/A2780)” value is given as 1.78.
As for `CC(C)c1cccc(C(C)C)c1-n1ccn(-c2c(C(C)C)cccc2C(C)C)[c]1=[Au+][PH](c1ccccc1)(c1ccccc1)[C@@H]1CCCC[C@H]1N.F[P-](F)(F)(F)(F)F` [Complex 2, [Au(IPr)(C18H22NP)] PF6], in the assay with A2780, half-maximal inhibition (IC50) was put at 500 ± 40 nM and the “Activity compared with cisplatin or auranofin in A2780 cells” value is “more active than cisplatin”. Besides, in the assay on A2780cis [1], half-maximal inhibition (IC50) was put at 800 ± 40 nM and the “Fold resistance (A2780cis/A2780)” value was determined as 1.6.
Turning to `CC(C)c1cccc(C(C)C)c1-n1ccn(-c2c(C(C)C)cccc2C(C)C)[c]1=[Au+][PH](c1ccccc1)(c1ccccc1)C(c1ccccc1)C(N)c1ccccc1.F[P-](F)(F)(F)(F)F` (stereo not shown) [Complex 3, [Au(IPr)(C26H24NP)] PF6], in the assay on A2780, the IC50 amounted to 780 ± 60 nM and the “Activity compared with cisplatin or auranofin in A2780 cells” value is reported as “more active than cisplatin”. Moreover, in the assay with A2780cis [1], the IC50 was 1140 ± 100 nM and the “Fold resistance (A2780cis/A2780)” value was found to be 1.46.
As for `CC(C)c1cccc(C(C)C)c1-n1ccn(-c2c(C(C)C)cccc2C(C)C)[c]1=[Au+][PH](CC(N)c1ccccc1)(c1ccccc1)c1ccccc1.F[P-](F)(F)(F)(F)F` (stereo not shown) [Complex 4, [Au(IPr)(C20H20NP)] PF6], in the assay with A2780, the IC50 was 820 ± 50 nM and the “Activity compared with cisplatin or auranofin in A2780 cells” value is reported as “more active than cisplatin”. Also, in the assay on A2780cis [1], the IC50 worked out at 1170 ± 150 nM and the “Fold resistance (A2780cis/A2780)” value was 1.43.
In the same order, the values of `CC(C)c1cccc(C(C)C)c1-n1ccn(-c2c(C(C)C)cccc2C(C)C)[c]1=[Au+][PH](CC(N)C(C)(C)C)(c1ccccc1)c1ccccc1.F[P-](F)(F)(F)(F)F` (stereo not shown) [Complex 5, [Au(IPr)(C18H24NP)] PF6] are 750 ± 70 nM, “more active than cisplatin”, 920 ± 80 nM and 1.23.
On to `CC(C)c1cccc(C(C)C)c1-n1ccn(-c2c(C(C)C)cccc2C(C)C)[c]1=[Au+][PH](CCCN)(c1ccccc1)c1ccccc1.F[P-](F)(F)(F)(F)F` [Complex 7, [Au(IPr)(C15H18NP)] PF6], for which half-maximal inhibition in the assay on A2780 (IC50) was put at 1420 ± 120 nM. In addition, in the assay on A2780cis [1], the IC50 is 1800 ± 150 nM and the “Fold resistance (A2780cis/A2780)” value amounted to 1.27.
